Experimental findings from ChEMBL document CHEMBL5247654 (J Med Chem, 2023) are described below.

The term inhibition denotes how much of the control response was suppressed.

Active and inactive are the calls of the source. The calls are words filed in the database; no cut-off is given here.

For assay [1], the target named is T1, Dual specificity tyrosine-phosphorylation-regulated kinase 1A (Homo sapiens, UniProt Q13627). The experiment in a line: Inhibition of human C-terminal his tagged DYRK1A (26 to 490 residues) expressed in Escherichia coli using DYRKtide (RRRFRPASPLRGPPK) as peptide substrate incubated for 1 hr in presence of ATP by cook activity assay.
Assay [2] deals with T2, Glycogen synthase kinase-3 beta (Homo sapiens, UniProt P49841). The experiment in a line: Inhibition of human C-terminal his tagged GSK3beta (26 to 383 residues) transfected in HEK293T cells assessed as inhibition of cyclin D1 phosphorylation at 10 uM incubated for 3 hrs by Western blot analysis. Type of assay: cell-based.
Target sequence in this assay (P49841 whole entry, looked up, the tested form may be a part): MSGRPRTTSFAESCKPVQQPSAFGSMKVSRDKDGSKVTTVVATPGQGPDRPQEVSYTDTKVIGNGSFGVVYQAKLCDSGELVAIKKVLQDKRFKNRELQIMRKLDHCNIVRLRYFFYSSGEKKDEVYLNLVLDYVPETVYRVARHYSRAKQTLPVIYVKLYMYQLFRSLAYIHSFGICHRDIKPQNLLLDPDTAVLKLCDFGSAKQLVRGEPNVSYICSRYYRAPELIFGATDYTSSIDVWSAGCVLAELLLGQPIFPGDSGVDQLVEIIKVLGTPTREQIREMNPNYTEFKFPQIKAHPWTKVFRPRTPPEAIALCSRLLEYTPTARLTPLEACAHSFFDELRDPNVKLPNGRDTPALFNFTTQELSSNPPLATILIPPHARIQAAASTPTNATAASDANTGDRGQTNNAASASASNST
In assay [3] the target is T1, Dual specificity tyrosine-phosphorylation-regulated kinase 1A. The experiment in a line: Binding affinity to human C-terminal his tagged DYRK1A (26 to 490 residues) expressed in Escherichia coli at 100 uM by radiometric analysis.
The target of assay [4] is T2, Glycogen synthase kinase-3 beta. The experiment in a line: Inhibition human C-terminal his tagged m-Cherry GSK3beta (26 to 383 residues) in HEK293T cells assessed as reversal of ionomycin stimulated NFAT cellular localization at 5 uM incubated for 3 hrs followed by ionomycin stimulation for 1 hr by Hoechst 33258 staining based fluorescence microscopic analysis. The format is cell-based. To be noted: time 4.0 hrs.
Target sequence in this assay (P49841 whole entry, looked up, the tested form may be a part): as above

The target in assay [5] is T1, Dual specificity tyrosine-phosphorylation-regulated kinase 1A. The experiment in a line: Inhibition of human C-terminal his tagged DYRK1A (26 to 490 residues) transfected in HEK293T cells assessed as inhibition of cyclin D1 phosphorylation at 10 uM incubated for 3 hrs by Western blot analysis. The format is cell-based. (In general: Immunoblotting shows a protein as a band on a membrane.)

The target of assay [6] is T2, Glycogen synthase kinase-3 beta. To be noted: dose 500.0 nM.
Target sequence in this assay (P49841 whole entry, looked up, the tested form may be a part): as above
The target is the same in assay [7]. The experiment in a line: Stabilization of human C-terminal his tagged GSK3beta (26 to 383 residues) expressed in Escherichia coli assessed as change in melting temperature at 10 uM by SYPRO orange dye based thermal shift assay.
Target sequence in this assay (P49841 whole entry, looked up, the tested form may be a part): as above
The target is the same in assay [8]. The experiment in a line: Inhibition of human C-terminal his tagged GSK3beta (26 to 383 residues) expressed in Escherichia coli using GYSI(YRRAAVPPSPSLSRHSSPHQ(pS)EDEEE) as peptide substrate incubated for 1 hr in presence of ATP by cook activity assay.
Target sequence in this assay (P49841 whole entry, the tested form may be a part): as the sequence (P49841 whole entry, looked up, the tested form may be a part) above

Take `O=C1Cc2c([nH]c3ccc(Br)cc23)-c2ncccc2N1` [AZAKENPAULLONE]: the IC50 result in assay [1] was “Not Active”. Besides, the inhibition result in assay [2], in assay [4] and in assay [5] was “Active” throughout. In addition, the outcome in assay [3] was inactive.

Consider `O=C(O)c1ccc2c(c1)nc(Nc1cccc(Cl)c1)c1ccncc12`, for which the inhibition came out at 100% in assay [2], 50% in assay [6] and 100% in assay [5]. In assay [4], the inhibition entry was “Active”.

`COc1ccc2c(c1)[nH]c1c(C)nccc12` [HARMINE]: the inhibition result in assay [2] and in assay [5] was “Active” throughout. The Tm result in assay [7] is “inactive”. The IC50 result in assay [8] is listed as “Not Active”.
